From US9896443B2, “Perforin inhibiting benzenesulfonamide compounds, preparation and uses thereof” (Peter MacCallum Cancer Institute, priority 2012, dated 2018)
Read-outs that look alike come from different tables or passages of the source.

Assays:
recombinant perforin = recombinant perforin (UniProt P10820); assay type: cell-based
Experimental: Inhibition of perforin-mediated lysis of Jurkat cells.
The ability of the compounds to inhibit the lysis of nucleated (Jurkat T lymphoma) cells in the presence of 0.1% BSA, as measured by release of ^51Cr was measured. Jurkat target cells were labelled by incubation in medium with 100 μCi ^51Cr for one hour. The cells were then washed three times to remove unincorporated isotope and re-suspended at 1×10^5 cells per mL in RPMI buffer supplemented with 0.1% BSA. […] Each data point was performed in triplicate and an IC50 was calculated from the range of concentrations described to above.

[1] = test system: KHYG-1 NK cell-mediated lysis of K562 cells; experiment: Inhibition of KHYG-1 NK cell-mediated lysis of K562 cells (51Cr release); assay type: cell-based; details: K562 target cells, Effector:Target 2:1, 4 hours at 37° C.; for inhibition at 20 µM: 4 h
Experimental: Inhibition of KHYG-1 NK Cell-Mediated Lysis of K562 Cells.
Test compounds were added to KHYG-1 cells at various concentrations up to 20 µM and incubated at RT for 20 minutes. 1×10^6 K562 target cells were labelled with 75 μCi ^51Cr in 200 μl RPMI for 90 mins at 37° C., cells were washed as described above and resuspended in 5 ml RPMI+0.1% BSA. 50 μl of ^51Cr labelled K562 leukemia target cells were added to each well of the KHYG-1 plate (Effector:Target 2:1) and incubated at 37° C. for 4 hours. ^51Cr release was assayed using a Skatron Harvesting Press and radioactivity estimated on a Wallac Wizard 1470 Automatic Gamma counter (Turku, Finland). The percentage of specific cytotoxicity was calculated by the formula: […]

[2] = read-out: Jurkat IC50; lysis of Jurkat T lymphoma cells by recombinant perforin, 0.1% BSA, 30 min pre-incubation, 4 hours at 37° C.
[3] = lysis of Jurkat T lymphoma cells by recombinant perforin, 0.1% BSA, 30 min pre-incubation, 4 hours at 37° C.; read-out: Jurkat IC50

recombinant perforin, sequence (P10820 whole entry): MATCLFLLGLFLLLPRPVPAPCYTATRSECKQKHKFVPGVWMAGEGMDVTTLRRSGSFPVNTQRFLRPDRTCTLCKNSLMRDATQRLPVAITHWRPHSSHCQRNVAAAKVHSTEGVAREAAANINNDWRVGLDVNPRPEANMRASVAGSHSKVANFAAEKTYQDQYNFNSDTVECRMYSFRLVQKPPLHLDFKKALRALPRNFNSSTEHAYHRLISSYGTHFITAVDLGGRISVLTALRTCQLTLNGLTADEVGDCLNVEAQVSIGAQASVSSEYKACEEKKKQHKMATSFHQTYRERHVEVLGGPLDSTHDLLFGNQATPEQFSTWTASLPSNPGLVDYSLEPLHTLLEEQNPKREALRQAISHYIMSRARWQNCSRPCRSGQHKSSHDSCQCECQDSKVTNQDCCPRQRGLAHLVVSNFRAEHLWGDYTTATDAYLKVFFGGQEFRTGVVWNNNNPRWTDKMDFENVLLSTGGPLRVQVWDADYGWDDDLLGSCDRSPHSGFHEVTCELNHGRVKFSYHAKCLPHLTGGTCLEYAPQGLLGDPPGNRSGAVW

| SMILES | IC50 (recombinant perforin; [2]) | inhibition at 20 µM [1] | melting point | IC50 (recombinant perforin; [3]) | Inhibition of KHYG-1 at 20 μM (%) ([1]; 20 µM) |
| --- | --- | --- | --- | --- | --- |
| O=C1c2ccc(-c3ccc(-c4cncc(NS(=O)(=O)c5ccc(F)cc5F)c4)s3)cc2CN1CCO [Compound 56, 2,4-Difluoro-N-(5-(5-(2-(2-hydroxyethyl)-1-oxoisoindolin-5-yl)thiophen-2-yl)pyridin-3-yl)benzenesulfonamide] | 1.33 µM | 32% | 211 to 216 °C |  |  |
| CN1Cc2cc(-c3ccc(-c4cncc(S(=O)(=O)Nc5ccc(F)cc5F)c4)s3)ccc2C1=O [Compound 44, N-(2,4-Difluorophenyl)-5-(5-(2-methyl-1-oxoisoindolin-5-yl)thiophen-2-yl)pyridine-3-sulphonamide] |  | 57% | 221 to 224 °C | 2.24 µM |  |
| CC(=O)c1cn(C)c2ccc(-c3ccc(-c4cncc(NS(=O)(=O)c5ccc(F)cc5F)c4)s3)cc12 [Compound 59, N-(5-(5-(3-Acetyl-1-methyl-1H-indol-5-yl)thiophen-2-yl)-pyridin-3-yl)-2,4-difluorobenzenesulfonamide] | 11.2 µM | 72% | 241 to 244 °C |  |  |
| COc1ncc(-c2ccc(-c3ccc4c(c3)CNC4=O)s2)cc1NS(=O)(=O)c1ccc(F)cc1F [Compound 38, 2,4-Difluoro-N-(2-methoxy-5-(5-(1-oxoisoindolin-5-yl)thiophen-2-yl)pyridin-3-yl)benzene sulphonamide] |  |  | 266 to 270 °C | 5.41 µM |  |
| CN1Cc2cc(-c3ccc(-c4cncc(NS(=O)(=O)c5ccc(Cl)cc5Cl)c4)s3)ccc2C1=O [Compound 13, 2,4-Dichloro-N-(5-(5-(2-methyl-1-oxoisoindolin-5-yl)thiophen-2-yl)pyridin-3-yl)benzene-sulfonamide] |  |  | 282 to 285 °C | 15 µM |  |
| Cc1cccc(S(=O)(=O)Nc2cncc(-c3ccc(-c4ccc5c(c4)CN(C)C5=O)s3)c2)c1 [Compound 2, 3-Methyl-N-(5-(5-(2-methyl-1-oxoisoindolin-5-yl)thiophen-2-yl)pyridin-3-yl)benzenesulfonamide] | 7.33 µM | 27% | 281 to 284 °C |  |  |
| CN1Cc2cc(-c3ccc(-c4cncc(NS(=O)(=O)c5cccc(OC(F)(F)F)c5)c4)s3)ccc2C1=O [Compound 23, N-(5-(5-(2-Methyl-1-oxoisoindolin-5-yl)thiophen-2-yl)pyridin-3-yl)-3-(trifluoromethoxy)benzenesulfonamide] |  | 38% | 230 to 232 °C | 1.42 µM |  |
| CN1Cc2cc(-c3ccc(-c4cncc(NS(=O)(=O)c5ccc(Cl)c(Cl)c5)c4)s3)ccc2C1=O [Compound 12, 3,4-Dichloro-N-(5-(5-(2-methyl-1-oxoisoindolin-5-yl)thiophen-2-yl)pyridin-3-yl)benzenesulfonamide] |  | 45% | 256 to 259 °C | 1.32 µM |  |
| COc1cccc(S(=O)(=O)Nc2cncc(-c3ccc(-c4ccc5c(c4)CN(C)C5=O)s3)c2)c1 [Compound 19, 3-Methoxy-N-(5-(5-(2-methyl-1-oxoisoindolin-5-yl)thiophen-2-yl)pyridin-3-yl)benzenesulfonamide] |  | 17% | 278 to 280 °C | 2.56 µM |  |
| CN1Cc2cc(-c3ccc(-c4cccc(NS(=O)(=O)c5ccc(F)cc5F)c4)s3)ccc2C1=O [Compound 43, 2,4-Difluoro-N-(3-(5-(2-methyl-1-oxoisoindolin-5-yl)thiophen-2-yl)phenyl)benzene sulphonamide] |  | 18% | 260 to 262 °C | 5.74 µM |  |
| CN1Cc2cc(-c3ccc(-c4cncc(NS(=O)(=O)c5cccs5)c4)s3)ccc2C1=O [Compound 34, N-(5-(5-(2-Methyl-1-oxoisoindolin-5-yl)thiophen-2-yl)pyridin-3-yl)thiophene-2-sulfonamide] |  | 45% | 300 to 304 °C | 1.07 µM |  |
| CN1Cc2cc(-c3ccc(-c4cncc(NS(=O)(=O)c5ccccc5Br)c4)s3)ccc2C1=O [Compound 15, 2-Bromo-N-(5-(5-(2-methyl-1-oxoisoindolin-5-yl)thiophen-2-yl)pyridin-3-yl)benzenesulfonamide] |  | 42% | 289 to 293 °C | 2.66 µM |  |
| CN1CCc2ccc(-c3ccc(-c4cncc(NS(=O)(=O)c5ccc(F)cc5F)c4)s3)cc2C1=O [Compound 55, 2,4-Difluoro-N-(5-(5-(2-methyl-1-oxo-1,2,3,4-tetrahydroisoquinolin-7-yl)thiophen-2-yl)pyridin-3-yl)benzenesulfonamide] |  | 0% | 280 to 283 °C |  |  |
| CN1Cc2cc(-c3ccc(-c4cnc(N)c(S(=O)(=O)Nc5ccc(F)cc5F)c4)s3)ccc2C1=O [Compound 45, 2-Amino-N-(2,4-difluorophenyl)-5-(5-(2-methyl-1-oxoisoindolin-5-yl)thiophen-2-yl)pyridine-3-sulphonamide] | 4.63 µM | 14% | 278 to 279 °C |  |  |
| CN1Cc2cc(-c3ccc(-c4cncc(NS(=O)(=O)c5cccc(Br)c5)c4)s3)ccc2C1=O [Compound 16, 3-Bromo-N-(5-(5-(2-methyl-1-oxoisoindolin-5-yl)thiophen-2-yl)pyridin-3-yl)benzenesulfonamide] |  | 20% | 303 to 307 °C | 2.11 µM |  |
| CN1Cc2cc(-c3ccc(-c4cncc(NS(=O)(=O)c5ccccc5OC(F)(F)F)c4)s3)ccc2C1=O [Compound 22, N-(5-(5-(2-Methyl-1-oxoisoindolin-5-yl)thiophen-2-yl)pyridin-3-yl)-2-(trifluoromethoxy)benzenesulfonamide] |  |  | 251 to 254 °C | 17.7 µM |  |
| CN1Cc2cc(-c3ccc(-c4cncc(N(C)S(=O)(=O)c5ccc(F)cc5F)c4)s3)ccc2C1=O [Compound 46, 2,4-Difluoro-N-methyl-N-(5-(5-(2-methyl-1-oxoisoindolin-5-yl)thiophen-2-yl)pyridin-3-yl)benzenesulphonamide] |  | 28% | 200 to 202 °C | 9.13 µM |  |
| CN1Cc2cc(-c3ccc(-c4ccc(OC(F)(F)F)c(NS(=O)(=O)c5ccccn5)c4)s3)ccc2C1=O [Compound 63, N-(5-(5-(2-Methyl-1-oxoisoindolin-5-yl)thiophen-2-yl)-2-(trifluoromethoxy)phenyl)pyridine-2-sulfonamide] |  |  | 200 to 201 °C | > 20 µM | 56.14 ± 9% |
| CN1Cc2ccc(-c3ccc(-c4cncc(NS(=O)(=O)c5ccc(F)cc5F)c4)s3)cc2C1=O [Compound 50, 2,4-Difluoro-N-(5-(5-(2-methyl-3-oxoisoindolin-5-yl)thiophen-2-yl)pyridin-3-yl)benzenesulfonamide] | 10.4 µM | 27% | 292 to 295 °C |  |  |
| COc1ccccc1S(=O)(=O)Nc1cncc(-c2ccc(-c3ccc4c(c3)CN(C)C4=O)s2)c1 [Compound 18, 2-Methoxy-N-(5-(5-(2-methyl-1-oxoisoindolin-5-yl)thiophen-2-yl)pyridin-3-yl)benzenesulfonamide] |  |  | 273 to 276 °C | 14.8 µM |  |
| CN1Cc2cc(-c3ccc(-c4cncc(NS(=O)(=O)c5cccnc5)c4)s3)ccc2C1=O [Compound 32, N-(5-(5-(2-Methyl-1-oxoisoindolin-5-yl)thiophen-2-yl)pyridin-3-yl)pyridine-3-sulfonamide] |  |  | 283 to 286 °C | 15.1 µM |  |
| Cc1ccc(S(=O)(=O)Nc2cncc(-c3ccc(-c4ccc5c(c4)CN(C)C5=O)s3)c2)cc1Cl [Compound 27, 3-Chloro-4-methyl-N-(5-(5-(2-methyl-1-oxoisoindolin-5-yl)thiophen-2-yl)pyridin-3-yl)benzenesulfonamide] |  | 52% | 277 to 279 °C |  |  |
| CN1Cc2cc(-c3ccc(-c4cncc(NS(=O)(=O)c5ccc(OC(F)(F)F)cc5)c4)s3)ccc2C1=O [Compound 24, N-(5-(5-(2-Methyl-1-oxoisoindolin-5-yl)thiophen-2-yl)pyridin-3-yl)-4-(trifluoromethoxy)benzenesulfonamide] |  |  | 293 to 296 °C |  |  |
| O=C1NCCc2ccc(-c3ccc(-c4cncc(NS(=O)(=O)c5ccc(F)cc5F)c4)s3)cc21 [Compound 54, 2,4-Difluoro-N-(5-(5-(1-oxo-1,2,3,4-tetrahydroisoquinolin-7-yl)thiophen-2-yl)pyridin-3-yl)benzenesulfonamide] |  |  | 252 °C (dec.) |  |  |
| CN1Cc2cc(-c3ccc(-c4cncc(NS(=O)(=O)c5ccc(C(C)(C)C)cc5)c4)s3)ccc2C1=O [Compound 3, 4-(tert-Butyl)-N-(5-(5-(2-methyl-1-oxoisoindolin-5-yl)thiophen-2-yl)pyridin-3-yl)benzenesulfonamide] |  |  | 285 to 288 °C |  |  |
